Assay results reported in patent publication US20080107623A1, “Inhibitors of Hepatitis C Virus” (Bristol-Myers Squibb Company, priority 2006, published 2008).
pIC50: −log10 of the molar value.

Tests used:
[1] = target: T1, HCV NS3/4A protease complex, J4L6S strain (Hepatitis C virus genotype 1b, UniProt O92972, C1454S/C1711G); assay: FRET peptide assay to monitor HCV NS3/4A proteolytic activity (J4L6S strain); assay type: biochemical, HCV genotype 1b; settings: read-out: IC50 against NS3/4A J4L6S strain
T1 construct: recombinant HCV NS3/4A protease complex (amino acids 1027 to 1711) for these strains; made in house; host or cells: Escherichia coli BL21 (DE3), pET21b
T1 sequence (O92972 1027-1711 C1454S/C1711G, one chain of several): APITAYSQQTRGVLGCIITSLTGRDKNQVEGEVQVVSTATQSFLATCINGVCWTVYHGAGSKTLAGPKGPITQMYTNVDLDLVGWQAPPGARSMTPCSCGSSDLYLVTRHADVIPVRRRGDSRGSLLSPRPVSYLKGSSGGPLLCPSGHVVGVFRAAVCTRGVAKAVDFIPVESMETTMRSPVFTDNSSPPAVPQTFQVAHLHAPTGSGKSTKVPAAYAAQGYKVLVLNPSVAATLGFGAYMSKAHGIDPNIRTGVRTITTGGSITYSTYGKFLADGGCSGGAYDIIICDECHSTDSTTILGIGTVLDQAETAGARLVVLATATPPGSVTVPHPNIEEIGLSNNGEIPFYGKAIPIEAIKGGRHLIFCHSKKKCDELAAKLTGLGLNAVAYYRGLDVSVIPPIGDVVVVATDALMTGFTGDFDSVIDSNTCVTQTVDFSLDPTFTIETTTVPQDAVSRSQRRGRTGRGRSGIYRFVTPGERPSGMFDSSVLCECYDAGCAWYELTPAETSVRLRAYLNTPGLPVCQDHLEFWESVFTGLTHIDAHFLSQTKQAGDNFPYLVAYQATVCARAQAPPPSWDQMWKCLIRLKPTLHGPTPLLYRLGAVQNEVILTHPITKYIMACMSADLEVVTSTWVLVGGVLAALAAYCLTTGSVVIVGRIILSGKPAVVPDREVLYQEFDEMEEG
Description: HCV NS3 protease complexes, derived from the BMS strain, H77 strain or J4L6S strain, were generated, as described below. These purified recombinant proteins were generated for use in a homogeneous assay (see below) to provide an indication of how effective compounds of the present disclosure would be in inhibiting HCV NS3 proteolytic activity.
The H77 and J4L6S strains were used for production of recombinant NS3/4A protease complexes. DNA encoding the recombinant HCV NS3/4A protease complex (amino acids 1027 to 1711) for these strains were manipulated as described by P. Gallinari et al. (see Gallinari P, Paolini C, Brennan D, Nardi C, Steinkuhler C, De Francesco R. Biochemistry. 38(17):5620-32, (1999)). Briefly, a three-lysine solubilizing tail was added at the 3′-end of the NS4A coding region. The cysteine in the P1 position of the NS4A-NS4B cleavage site (amino acid 1711) was changed to a glycine to avoid the proteolytic cleavage of the lysine tag. Furthermore, a cysteine to serine mutation was introduced by PCR at amino acid position 1454 to prevent the autolytic cleavage in the NS3 helicase domain. […]

human liver cathepsin B = target: T2, human liver cathepsin B (Homo sapiens, UniProt P07858); assay: Specificity assay, cathepsin B (AMC substrate); assay type: biochemical
T2 construct: purchased Sigma or EMDbiosciences; host or cells: human liver (as named)
Procedure: (§1) The specificities of compounds of the present disclosure were determined against a variety of serine proteases: human neutrophil elastase (HNE), porcine pancreatic elastase (PPE) and human pancreatic chymotrypsin and one cysteine protease: human liver cathepsin B. In all cases, a 96-well plate format protocol using colorimetric p-nitroaniline (pNA) substrate or fluorometric Amino-Methyl-Coumarin (AMC) substrate, specific for each enzyme was used as described previously (PCT Patent Application No. WO 00/09543) with some modifications. All enzymes were purchased from Sigma or EMDbiosciences while the substrates were from Bachem.
Each pNA assay included a 2 h enzyme-inhibitor pre-incubation at room temperature followed by addition of substrate and hydrolysis to ˜15% conversion as measured on a Spectramax Pro microplate reader. The cathepsin B assay was initiated by adding substrate to a 10 min enzyme-inhibitor pre-incubation at room temperature, and the assay plate measured immediately using the Cytofluor Series 4000. Compound concentrations varied from 100 to 0.4 μM depending on their potency. […]
(§2) The percentage of inhibition was calculated using the formula: [1−((UVinh−UVblank)/(UVctl−UVblank))]×100 […]

[2] = system: human pancreatic chymotrypsin; assay: Specificity assay, chymotrypsin (pNA substrate); assay type: biochemical
Procedure: as §1
Each pNA assay included a 2 h enzyme-inhibitor pre-incubation at room temperature followed by addition of substrate and hydrolysis to ˜15% conversion as measured on a Spectramax Pro microplate reader. The cathepsin B assay was initiated by adding substrate to a 10 min enzyme-inhibitor pre-incubation at room temperature, and the assay plate measured immediately using the Cytofluor Series 4000. Compound concentrations varied from 100 to 0.4 μM depending on their potency.
50 mM Tris(hydroxymethyl)aminomethane hydrochloride (Tris-HCl) pH 8, 0.5 M Sodium Sulfate (Na2SO4), 50 mM NaCl, 0.1 mM EDTA, 3% DMSO, 0.01% Tween-20 with: […]
as §2

## COc1c(O[C@@H]2C[C@H]3C(=O)N[C@]4(C(=O)NS(=O)(=O)C5CC5)C[C@H]4/C=C\CCCCC[C@H](NC(=O)OC(C)(C)C)C(=O)N3C2)ccc2c(Cl)nccc12 [Compound 3]
[1]
  pIC50: 9.33
Human liver cathepsin B
  pIC50: ≤ 4.00
[2]
  pIC50: < 4.00
